Where two headings read alike, the source gives them in different places.
Experiments:
[1] = test system: DOI-induced behaviors; conditions: rats; 30 min pretreatment i.p.; fixed dose of DOI 3.0 mg/kg; cited from earlier work
[2] = test system: Thr34-DARPP-32; experiment: In vivo phosphorylation of DARPP-32 at Thr34 in mouse striatum (immunoblot, phosphorylation state-specific antibodies); parameters: species or system mice; conditions: for Thr34-DARPP-32 phosphorylation level (mean): eticlopride 0.5, haloperidol 0.2, clozapine 5 mg/kg i.p., time 0 control = 100
Method: (§1) Male C57/BL6 mice (groups of six) were administered intraperitoneal injections of one of three anti-psychotic compounds, haloperidol (a typical anti-psychotic), clozapine (an atypical anti-psychotic), or eticlopride (a selective dopamine D2 receptor antagonist). All animals were sacrificed by decapitation at 15, 30, or 60 minutes post-injection. After decapitation, the heads were immediately immersed in liquid nitrogen for 6 seconds to inactivate all protein activity. The brains were then dissected on an ice-cold surface and the striata removed and sonicated in 750 μl of 1% SDS, and then boiled for 10 minutes. Levels of phosphorylated DARPP-32, CREB, and ERK1 and ERK2 were then determined.
(§2) In order to determine levels of phosphoproteins in brain tissue, aliquots of the brain homogenate were loaded onto 10% polyacrylamide gels and the proteins separated by SDS/PAGE analysis, and then transferred to poly(vinylidene difluoride) membranes as described by Towbin and colleagues (Towbin, H. et al. 1979. Proc. Natl. Acad. Sci. USA 76:4350-4354). The effect of the drugs on the phosphorylation of DARPP-32 at two sites (Thr34 and Thr75), ERK1 at two sites (Thr202 and Tyr204), ERK2 at two sites (Thr185 and Tyr187), and CREB at one site (Ser133) was assessed using phosphorylation state-specific antibodies according to standard methods. Anti-phospho-ERK1 and anti-phospho-ERK2 antibodies were obtained from Cell Signaling Technology (Beverly, Mass.). Anti-phospho-CREB antibody was obtained from Upstate Biotechnology (Lake Placid, N.Y.). Anti-phospho-DARPP32 antibodies were used that had been produced according to the methods disclosed in U.S. patent application Ser. No. 09/419,379, by Bibb et al., entitled “Methods of Identifying Agents That Regulate Phosphorylation/Dephosphorylation in Dopamine Signaling,” filed Oct. 15, 1999, and Ser. No. 09/687,959, by Bibb et al., entitled “Methods of Identifying Agents That Regulate Phosphorylation/Dephosphorylation in Dopamine Signaling,” filed Oct. 13, 2000, (each of which is incorporated herein by reference in its entirety). These methods were used to produce phosphorylation state-specific antibodies having specificity for Thr34-phosphorylated and Thr75-phosphorylated DARPP-32.

[3] = test system: Ser133-CREB; experiment: In vivo phosphorylation of CREB in mouse striatum (immunoblot, phosphorylation state-specific antibodies); parameters: species or system mice; conditions: for Ser133-CREB phosphorylation level (mean): eticlopride 0.5, haloperidol 0.2, clozapine 5 mg/kg i.p., time 0 control = 100; for levels of phospho-CREB (in words): haloperidol 0.2 mg/kg, eticlopride 0.5 mg/kg
Method: as §1, §2

[4] = test system: Thr75-DARPP-32; experiment: In vivo phosphorylation of DARPP-32 at Thr75 in mouse striatum (immunoblot, phosphorylation state-specific antibodies); conditions: for Thr75-DARPP-32 phosphorylation level (mean): eticlopride 0.5, haloperidol 0.2, clozapine 5 mg/kg i.p., time 0 control = 100
[5] = test system: Thr185- and Tyr187- ERK2; experiment: In vivo phosphorylation of ERK2 in mouse striatum (immunoblot, phosphorylation state-specific antibodies); parameters: species or system mice; conditions: for Thr185- and Tyr187- ERK2 phosphorylation level (mean): eticlopride 0.5, haloperidol 0.2, clozapine 5 mg/kg i.p., time 0 control = 100; for levels of phospho-ERK2 (in words): haloperidol 0.2 mg/kg, eticlopride 0.5 mg/kg
Method: as §1, §2

[6] = test system: Thr202- and Tyr204- ERK1; experiment: In vivo phosphorylation of ERK1 in mouse striatum (immunoblot, phosphorylation state-specific antibodies); conditions: for Thr202- and Tyr204- ERK1 phosphorylation level (mean): eticlopride 0.5, haloperidol 0.2, clozapine 5 mg/kg i.p., time 0 control = 100; for levels of phospho-ERK1 (in words): haloperidol 0.2 mg/kg, eticlopride 0.5 mg/kg
[7] = test system: DARPP-32; conditions: chronic administration in rats; cited from earlier work
[8] = test system: c-fos; conditions: dorsal striatum; cited from earlier work

## Cc1nc2n(c(=O)c1CCN1CCC(c3noc4cc(F)ccc34)CC1)CCCC2 [risperidone]
[1]
  effect on the three behavioral effects of DOI (head-and-body shakes, forepaw tapping, skin-jerks): antagonize

## Cc1nc2sccn2c(=O)c1CCN1CCC(=C(c2ccc(F)cc2)c2ccc(F)cc2)CC1 [ritanserin]
[1]
  effect on the three behavioral effects of DOI (head-and-body shakes, forepaw tapping, skin-jerks): antagonize

## CN1CCN(C2=Nc3cc(Cl)ccc3Nc3ccccc32)CC1 [Clozapine, clozapine]
[2]; 15 min post-injection
  Thr34-DARPP-32 phosphorylation level (mean): 188
[2]; 30 min post-injection
  Thr34-DARPP-32 phosphorylation level (mean): 209
[2]; 60 min post-injection
  Thr34-DARPP-32 phosphorylation level (mean): 222
[3]; 15 min post-injection
  Ser133-CREB phosphorylation level (mean): 51
[3]; 30 min post-injection
  Ser133-CREB phosphorylation level (mean): 62
[3]; 60 min post-injection
  Ser133-CREB phosphorylation level (mean): 57
[4]; 15 min post-injection
  Thr75-DARPP-32 phosphorylation level (mean): 179
[4]; 30 min post-injection
  Thr75-DARPP-32 phosphorylation level (mean): 216
[4]; 60 min post-injection
  Thr75-DARPP-32 phosphorylation level (mean): 203
[5]; 15 min post-injection
  Thr185- and Tyr187- ERK2 phosphorylation level (mean): 62
[5]; 30 min post-injection
  Thr185- and Tyr187- ERK2 phosphorylation level (mean): 41
[5]; 60 min post-injection
  Thr185- and Tyr187- ERK2 phosphorylation level (mean): 15
[6]; 15 min post-injection
  Thr202- and Tyr204- ERK1 phosphorylation level (mean): 90
[6]; 30 min post-injection
  Thr202- and Tyr204- ERK1 phosphorylation level (mean): 75
[6]; 60 min post-injection
  Thr202- and Tyr204- ERK1 phosphorylation level (mean): 33

## CCN1CCC[C@H]1CNC(=O)c1c(OC)ccc(Br)c1OC [remoxipride]
[1]
  effect on the three behavioral effects of DOI (head-and-body shakes, forepaw tapping, skin-jerks): antagonize

## CN1CC[C@]23c4c5ccc(O)c4O[C@H]2[C@@H](O)C=C[C@H]3[C@H]1C5 [morphine]
[7]
  frontal cortex levels of DARPP-32 immunoreactivity: without effects

## N[C@@H]1C[C@H]1c1ccccc1 (racemic) [tranylcypromine]
[7]
  frontal cortex levels of DARPP-32 immunoreactivity: significant increases

## O=C(CCCN1CCC(O)(c2ccc(Cl)cc2)CC1)c1ccc(F)cc1 [Haloperidol, haloperidol]
[2]; 15 min post-injection
  Thr34-DARPP-32 phosphorylation level (mean): 195
[2]; 30 min post-injection
  Thr34-DARPP-32 phosphorylation level (mean): 196
[2]; 60 min post-injection
  Thr34-DARPP-32 phosphorylation level (mean): 155
[2]; at 60 minutes
  Thr34 phosphorylation (in words): no statistical difference from controls
[2]; for up to 30 minutes
  Thr34 phosphorylation (in words): increased
[7]
  frontal cortex levels of DARPP-32 immunoreactivity: without effects
[1]
  effect on the three behavioral effects of DOI (head-and-body shakes, forepaw tapping, skin-jerks): antagonize
[8]
  inducing c-fos expression, as compared to clozapine: much more effective
[3]
  time after administration at which phospho-CREB levels returned to control levels: 30 min
  levels of phospho-CREB (in words): significant increases
[3]; 15 min post-injection
  Ser133-CREB phosphorylation level (mean): 148
[3]; 30 min post-injection
  Ser133-CREB phosphorylation level (mean): 131
[3]; 60 min post-injection
  Ser133-CREB phosphorylation level (mean): 114
[4]
  DARPP-32 phosphorylation at Thr75 (in words): without effect
[4]; 15 min post-injection
  Thr75-DARPP-32 phosphorylation level (mean): 133
[4]; 30 min post-injection
  Thr75-DARPP-32 phosphorylation level (mean): 144
[4]; 60 min post-injection
  Thr75-DARPP-32 phosphorylation level (mean): 138
[5]
  time after administration at which phospho-ERK2 levels returned to control levels: 30 min
  levels of phospho-ERK2 (in words): significant increases
[5]; 15 min post-injection
  Thr185- and Tyr187- ERK2 phosphorylation level (mean): 151
[5]; 30 min post-injection
  Thr185- and Tyr187- ERK2 phosphorylation level (mean): 114
[5]; 60 min post-injection
  Thr185- and Tyr187- ERK2 phosphorylation level (mean): 107
[6]; 15 min post-injection
  Thr202- and Tyr204- ERK1 phosphorylation level (mean): 231
[6]; 30 min post-injection
  Thr202- and Tyr204- ERK1 phosphorylation level (mean): 187
[6]; 60 min post-injection
  Thr202- and Tyr204- ERK1 phosphorylation level (mean): 169
[6]
  levels of phospho-ERK1 (in words): significant increases

## N alpha MeArg-Lys-Pro-Trp-Tle-Leu [NT1]
[1]
  effect on the three behavioral effects of DOI (head-and-body shakes, forepaw tapping, skin-jerks): antagonize

## CCc1cc(Cl)c(OC)c(C(=O)NC[C@@H]2CCCN2CC)c1O [Eticlopride, eticlopride]
[2]; 15 min post-injection
  Thr34-DARPP-32 phosphorylation level (mean): 192
[2]; 30 min post-injection
  Thr34-DARPP-32 phosphorylation level (mean): 226
[2]; 60 min post-injection
  Thr34-DARPP-32 phosphorylation level (mean): 190
[3]
  time after administration at which phospho-CREB levels returned to control levels: 60 min
  levels of phospho-CREB (in words): significant increases
[3]; 15 min post-injection
  Ser133-CREB phosphorylation level (mean): 167
[3]; 30 min post-injection
  Ser133-CREB phosphorylation level (mean): 146
[3]; 60 min post-injection
  Ser133-CREB phosphorylation level (mean): 123
[4]; 15 min post-injection
  Thr75-DARPP-32 phosphorylation level (mean): 80
[4]; 30 min post-injection
  Thr75-DARPP-32 phosphorylation level (mean): 70
[4]; 60 min post-injection
  Thr75-DARPP-32 phosphorylation level (mean): 80
[4]; at 30 minutes
  DARPP-32 phosphorylation at Thr75 (in words): decreased
[5]
  time after administration at which phospho-ERK2 levels returned to control levels: 30 min
  levels of phospho-ERK2 (in words): significant increases
[5]; 15 min post-injection
  Thr185- and Tyr187- ERK2 phosphorylation level (mean): 132
[5]; 30 min post-injection
  Thr185- and Tyr187- ERK2 phosphorylation level (mean): 97
[5]; 60 min post-injection
  Thr185- and Tyr187- ERK2 phosphorylation level (mean): 96
[6]; 15 min post-injection
  Thr202- and Tyr204- ERK1 phosphorylation level (mean): 223
[6]; 30 min post-injection
  Thr202- and Tyr204- ERK1 phosphorylation level (mean): 207
[6]; 60 min post-injection
  Thr202- and Tyr204- ERK1 phosphorylation level (mean): 170
[6]
  levels of phospho-ERK1 (in words): significant increases

## CN(C)CCCN1c2ccccc2CCc2ccccc21 [imipramine]
[7]
  frontal cortex levels of DARPP-32 immunoreactivity: significant increases

## COc1cc(C(C)=O)ccc1OCCCN1CCC(c2noc3cc(F)ccc23)CC1 [iloperidone]
[1]
  effect on the three behavioral effects of DOI (head-and-body shakes, forepaw tapping, skin-jerks): antagonize

## CCNC(=O)N1CCN(CCCC(c2ccc(F)cc2)c2ccc(F)cc2)CC1 [amperozide]
[1]
  effect on the three behavioral effects of DOI (head-and-body shakes, forepaw tapping, skin-jerks): antagonize

## COc1cccc([C@H](O)C2CCN(CCc3ccc(F)cc3)CC2)c1OC [M100907]
[1]
  effect on the three behavioral effects of DOI (head-and-body shakes, forepaw tapping, skin-jerks): antagonize

From US7427485B2, “Method for classification of anti-psychotic drugs” (The Rockefeller University, priority 2001, dated 2008)
